Reference: ChEMBL document CHEMBL1201862, “PubChem BioAssay data set” (2004)
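Briefly, cells in 96-well plates were exposed to five compound concentrations for 48 h, and endpoints were estimated by linear interpolation. Here, GI50 denotes the concentration required for 50% inhibition of growth.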 Calls of active or inactive are those of the source. No stated cut-off is given here; in the data, active = GI50 up to about 1.1 µM and inactive = higher.

Tests used:
Test in all cases: NCI tumour cell line growth inhibition, 48 h
CAKI-1 = tested on: CAKI-1
CCRF-CEM = tested on: CCRF-CEM
DU-145 = tested on: DU-145
HL-60 = tested on: HL-60
HOP-92 = tested on: HOP-92
K562 = tested on: K562
MDA-N = tested on: MDA-N
Malme-3M = tested on: Malme-3M
NCI-H23 = tested on: NCI-H23
OVCAR-4 = tested on: OVCAR-4
PC-3 = tested on: PC-3
SF-295 = tested on: SF-295
SNB-75 = tested on: SNB-75
T47D = tested on: T47D
UACC-62 = tested on: UACC-62
NCI/ADR-RES = tested on: NCI/ADR-RES
SF-539 = tested on: SF-539
SK-MEL-2 = tested on: SK-MEL-2
SNB-19 = tested on: SNB-19
Hs-578T = tested on: Hs-578T

| Structure (SMILES) | GI50 (CAKI-1) | GI50 (CCRF-CEM) | GI50 (DU-145) | GI50 (HL-60) | GI50 (HOP-92) | GI50 (K562) | GI50 (MDA-N) | GI50 (Malme-3M) | GI50 (NCI-H23) | GI50 (OVCAR-4) | GI50 (PC-3) | GI50 (SF-295) | GI50 (SNB-75) | GI50 (T47D) | GI50 (UACC-62) | GI50 (NCI/ADR-RES) | GI50 (SF-539) | GI50 (SK-MEL-2) | GI50 (SNB-19) | GI50 (Hs-578T) |
| --- | --- | --- | --- | --- | --- | --- | --- | --- | --- | --- | --- | --- | --- | --- | --- | --- | --- | --- | --- | --- |
| CCOC(=O)C1NCCc2c1[nH]c1ccccc21 (stereo unspecified) | > 10 µM (inactive) | > 10 µM (inactive) | > 10 µM (inactive) | > 10 µM (inactive) | > 10 µM (inactive) | > 10 µM (inactive) | > 10 µM (inactive) | > 10 µM (inactive) | > 10 µM (inactive) | > 10 µM (inactive) | > 10 µM (inactive) | > 10 µM (inactive) | > 10 µM (inactive) | > 10 µM (inactive) | > 10 µM (inactive) | – | – | – | – | – |
| C[n+]1cc2cc(O)c(O)cc2c2ccc3cc(O)c(O)cc3c21.c1ccncc1 | 3.05 µM (inactive) | 1.17 µM (inactive) | 3.57 µM (inactive) | – | 2.31 µM (inactive) | 1.71 µM (inactive) | 3.25 µM (inactive) | 2.59 µM (inactive) | 2.42 µM (inactive) | 2.88 µM (inactive) | 3.37 µM (inactive) | 3.39 µM (inactive) | 3.31 µM (inactive) | 5.86 µM (inactive) | 1.75 µM (inactive) | 2.3 µM (inactive) | 2.62 µM (inactive) | 3.05 µM (inactive) | 1.49 µM (inactive) | – |
| COc1ccc(S(=O)(=O)Nc2ccccc2C(=O)O)cc1 | > 100 µM (inactive) | > 100 µM (inactive) | – | > 100 µM (inactive) | 55.8 µM (inactive) | > 100 µM (inactive) | – | > 100 µM (inactive) | > 100 µM (inactive) | > 100 µM (inactive) | – | > 100 µM (inactive) | 68.1 µM (inactive) | – | > 100 µM (inactive) | – | > 100 µM (inactive) | > 100 µM (inactive) | > 100 µM (inactive) | – |
| O=NC1C(Cl)C2CC1C1C(Br)C(Br)CC21 (stereo unspecified) | > 100 µM (inactive) | 62.7 µM (inactive) | > 100 µM (inactive) | > 100 µM (inactive) | > 100 µM (inactive) | > 100 µM (inactive) | – | > 100 µM (inactive) | > 100 µM (inactive) | > 100 µM (inactive) | > 100 µM (inactive) | > 100 µM (inactive) | > 100 µM (inactive) | > 100 µM (inactive) | > 100 µM (inactive) | > 100 µM (inactive) | > 100 µM (inactive) | > 100 µM (inactive) | > 100 µM (inactive) | > 100 µM (inactive) |
| CCCCCCCCCCCCCCCCc1c(O)nc(NN)nc1C(=O)OC | > 50 µM (inactive) | > 50 µM (inactive) | – | > 50 µM (inactive) | 22.4 µM (inactive) | > 50 µM (inactive) | – | > 50 µM (inactive) | > 50 µM (inactive) | > 50 µM (inactive) | – | > 50 µM (inactive) | > 50 µM (inactive) | – | > 50 µM (inactive) | – | > 50 µM (inactive) | > 50 µM (inactive) | > 50 µM (inactive) | – |
| COC1C=CC(C(=O)[N+]2=Cc3[nH]c4ccccc4c3CC2)O1 (stereo unspecified) | > 100 µM (inactive) | 27.6 µM (inactive) | – | 32.3 µM (inactive) | > 100 µM (inactive) | 37.2 µM (inactive) | – | > 100 µM (inactive) | > 100 µM (inactive) | > 100 µM (inactive) | – | > 100 µM (inactive) | 75.3 µM (inactive) | – | > 100 µM (inactive) | – | > 100 µM (inactive) | > 100 µM (inactive) | > 100 µM (inactive) | – |
| COC(=O)/C=C\S/C(=C(/c1ccccc1)n1ccc(C(=O)OC)n1)c1ccccc1 | > 100 µM (inactive) | – | – | > 100 µM (inactive) | 20.9 µM (inactive) | > 100 µM (inactive) | – | 23.7 µM (inactive) | 22.8 µM (inactive) | 21.9 µM (inactive) | 16.7 µM (inactive) | 20.3 µM (inactive) | 6.04 µM (inactive) | 24.5 µM (inactive) | 3.23 µM (inactive) | 47.6 µM (inactive) | 40.2 µM (inactive) | 15.7 µM (inactive) | 12.7 µM (inactive) | 26.6 µM (inactive) |
| Cc1cc(Br)ccc1/N=N/c1c(C)nn(-c2ccccc2)c1-c1ccccc1 | 71.3 µM (inactive) | 21.2 µM (inactive) | – | 5.05 µM (inactive) | 98.6 µM (inactive) | 17 µM (inactive) | – | > 100 µM (inactive) | > 100 µM (inactive) | > 100 µM (inactive) | – | 75.2 µM (inactive) | > 100 µM (inactive) | – | 27 µM (inactive) | – | 92.3 µM (inactive) | > 100 µM (inactive) | > 100 µM (inactive) | – |
| Cc1[nH]c2ccccc2c1C1Cc2ccccc2N1C(=O)/C=C\C(=O)O (stereo unspecified) | 24.8 µM (inactive) | 31 µM (inactive) | – | 26.4 µM (inactive) | 38.2 µM (inactive) | 35.6 µM (inactive) | – | 73.3 µM (inactive) | 56.4 µM (inactive) | > 100 µM (inactive) | – | 45.6 µM (inactive) | 24.3 µM (inactive) | – | 26.2 µM (inactive) | – | 28.4 µM (inactive) | 21.8 µM (inactive) | 23.3 µM (inactive) | – |
| O=C1CCCC2=C1CC1=C(CCCC1=O)N2c1ccc([N+](=O)[O-])cc1 | > 100 µM (inactive) | > 100 µM (inactive) | – | > 100 µM (inactive) | – | > 100 µM (inactive) | – | – | > 100 µM (inactive) | > 100 µM (inactive) | > 100 µM (inactive) | – | > 100 µM (inactive) | – | > 100 µM (inactive) | > 100 µM (inactive) | > 100 µM (inactive) | – | > 100 µM (inactive) | > 100 µM (inactive) |
| O=S(=O)(O)c1ccccc1/N=N\c1ccc(/N=N/c2c(O)ccc3ccccc23)c(S(=O)(=O)O)c1 | > 100 µM (inactive) | 83.6 µM (inactive) | > 100 µM (inactive) | – | > 100 µM (inactive) | > 100 µM (inactive) | – | 19.4 µM (inactive) | > 100 µM (inactive) | > 100 µM (inactive) | > 100 µM (inactive) | > 100 µM (inactive) | > 100 µM (inactive) | > 100 µM (inactive) | > 100 µM (inactive) | > 100 µM (inactive) | – | > 100 µM (inactive) | > 100 µM (inactive) | > 100 µM (inactive) |
| CC(=O)NNC(=S)N/C=C1/C(=O)C=C(C)OC1=O | > 100 µM (inactive) | – | > 100 µM (inactive) | > 100 µM (inactive) | > 100 µM (inactive) | – | > 100 µM (inactive) | – | > 100 µM (inactive) | > 100 µM (inactive) | > 100 µM (inactive) | > 100 µM (inactive) | > 100 µM (inactive) | > 100 µM (inactive) | – | > 100 µM (inactive) | > 100 µM (inactive) | > 100 µM (inactive) | > 100 µM (inactive) | – |
| CC1CCC2CC1NC(=O)CCOCCC(=O)NC2(C)C (stereo unspecified) | – | > 100 µM (inactive) | > 100 µM (inactive) | > 100 µM (inactive) | > 100 µM (inactive) | > 100 µM (inactive) | > 100 µM (inactive) | – | > 100 µM (inactive) | > 100 µM (inactive) | > 100 µM (inactive) | > 100 µM (inactive) | > 100 µM (inactive) | > 100 µM (inactive) | > 100 µM (inactive) | – | > 100 µM (inactive) | – | > 100 µM (inactive) | – |
| Cn1cccc1/C=C/c1cc(Br)c(/C=C/c2cccn2C)cc1Br | 15.3 µM (inactive) | 15.2 µM (inactive) | – | 13.6 µM (inactive) | 11.7 µM (inactive) | 16.7 µM (inactive) | – | 10.4 µM (inactive) | > 10 µM (inactive) | 5.4 µM (inactive) | – | 20.9 µM (inactive) | 3.13 µM (inactive) | – | 13.8 µM (inactive) | – | 14.6 µM (inactive) | 14.6 µM (inactive) | 24.2 µM (inactive) | – |
| Cc1ccc2nc(-c3ccccc3)c(N=O)n2c1 | 37.1 µM (inactive) | 38.5 µM (inactive) | 46.6 µM (inactive) | – | 77.1 µM (inactive) | 91.2 µM (inactive) | – | 29.5 µM (inactive) | 36.1 µM (inactive) | 26.2 µM (inactive) | 62.7 µM (inactive) | 87.1 µM (inactive) | 76.7 µM (inactive) | 71 µM (inactive) | 22.6 µM (inactive) | 46.2 µM (inactive) | 29.2 µM (inactive) | > 100 µM (inactive) | 96.4 µM (inactive) | 79.4 µM (inactive) |
| CC(C)c1cccc(=O)c(O)c1 | 1.64 µM (inactive) | 0.845 µM (active) | – | 2.02 µM (inactive) | 1.75 µM (inactive) | 2.21 µM (inactive) | 2.18 µM (inactive) | 1.35 µM (inactive) | 2.53 µM (inactive) | 2.56 µM (inactive) | – | 3.39 µM (inactive) | 6.18 µM (inactive) | – | 2.67 µM (inactive) | – | 3.21 µM (inactive) | 5.68 µM (inactive) | 7.24 µM (inactive) | – |
| N#CCc1c(-c2ccccc2)n(S(=O)(=O)c2ccccc2)c2ccccc12 | > 100 µM (inactive) | > 100 µM (inactive) | – | > 100 µM (inactive) | 8.89 µM (inactive) | 46.9 µM (inactive) | – | > 100 µM (inactive) | 33.7 µM (inactive) | 37.3 µM (inactive) | – | 25.1 µM (inactive) | 6.78 µM (inactive) | – | 94.2 µM (inactive) | – | > 100 µM (inactive) | > 100 µM (inactive) | 63.5 µM (inactive) | – |
| COC(=O)[C@H](NC(=O)OC(C)(C)C)[C@H]1COC(C)(C)O1 | > 100 µM (inactive) | > 100 µM (inactive) | > 100 µM (inactive) | > 100 µM (inactive) | – | > 100 µM (inactive) | > 100 µM (inactive) | 40.1 µM (inactive) | > 100 µM (inactive) | > 100 µM (inactive) | > 100 µM (inactive) | > 100 µM (inactive) | – | – | > 100 µM (inactive) | > 100 µM (inactive) | > 100 µM (inactive) | > 100 µM (inactive) | > 100 µM (inactive) | – |
